Reference: ChEMBL document CHEMBL4507257, “Data for DCP probe ABT-100” (2021)

How the values were obtained:
[1] = target: Type-1 angiotensin II receptor (Homo sapiens) (UniProt P30556); assay: AT1 (h) Ligand binding assay; conditions: Compound concentration 10.0 uM
[2] = target: P2Y receptor (Homo sapiens) (UniProt Q9H244+P51582+P47900+P41231+Q15391+Q15077+Q96G91+Q9BPV8); assay: P2Y Ligand binding assay; type: protein assay; conditions: Compound concentration 10.0 uM
[3] = target: Adrenergic receptor alpha-1 (Homo sapiens) (UniProt P35348+P25100+P35368); assay: alpha1 (non-selective) Ligand binding assay; type: protein assay; conditions: Compound concentration 10.0 uM
[4] = target: C-C chemokine receptor type 1 (Homo sapiens) (UniProt P32246); assay: CCR1 (h) Ligand binding assay; conditions: Compound concentration 10.0 uM
[5] = target: Neuropeptide Y receptor type 1 (Homo sapiens) (UniProt P25929); assay: Y1 (h) Ligand binding assay; conditions: Compound concentration 10.0 uM
[6] = target: Tumor necrosis factor (Homo sapiens) (UniProt P01375); assay: TNF-alpha (h) Ligand binding assay; conditions: Compound concentration 10.0 uM
[7] = target: Bombesin receptor (Homo sapiens) (UniProt P28336+P32247+P30550); assay: Bombesin Ligand binding assay; type: protein assay; conditions: Compound concentration 10.0 uM
[8] = target: Somatostatin receptor (Homo sapiens) (UniProt P35346+P30874+P31391+P30872+P32745); assay: Somatostatin Ligand binding assay; type: protein assay; conditions: Compound concentration 10.0 uM
[9] = target: D(3) dopamine receptor (Homo sapiens) (UniProt P35462); assay: D3 (h) Ligand binding assay; conditions: Compound concentration 10.0 uM
[10] = GABA (non selective) Ligand binding assay; conditions: Compound concentration 10.0 uM
[11] = target: Endothelin receptor type B (Homo sapiens) (UniProt P24530); assay: ETB (h) Ligand binding assay; conditions: Compound concentration 10.0 uM
[12] = target: Sodium-dependent noradrenaline transporter (Homo sapiens) (UniProt P23975); assay: NE uptake (h) Ligand binding assay
[13] = target: G protein-coupled receptor kinase 3 (Homo sapiens, UniProt P35626); assay: Inhibition of GRK3 at compound concentration of 10.0 uM using the ScanMax (DiscoverX)
[14] = target: Muscarinic acetylcholine receptor M3 (Homo sapiens) (UniProt P20309); assay: M3 (h) Ligand binding assay; conditions: Compound concentration 10.0 uM
[15] = target: Adenosine receptor A1 (Homo sapiens) (UniProt P30542); assay: A1 (h) Ligand binding assay; conditions: Compound concentration 10.0 uM
[16] = target: 5-hydroxytryptamine receptor 6 (Homo sapiens) (UniProt P50406); assay: 5-HT6 (h) Ligand binding assay; conditions: Compound concentration 10.0 uM
[17] = target: D(1B) dopamine receptor (Homo sapiens) (UniProt P21918); assay: D5 (h) Ligand binding assay; conditions: Compound concentration 10.0 uM
[18] = target: Gastrin/cholecystokinin type B receptor (Homo sapiens) (UniProt P32239); assay: CCKB (h) Ligand binding assay; conditions: Compound concentration 10.0 uM
Histamine H1 receptor = Histamine H1 receptor (Homo sapiens, UniProt P35367); assay: H1 (central) Ligand binding assay; conditions: Compound concentration 10.0 uM
[19] = target: Sodium-dependent dopamine transporter (Homo sapiens) (UniProt Q01959); assay: DA uptake (h) Ligand binding assay
[20] = target: T1, Muscarinic acetylcholine receptor M4 (Homo sapiens) (UniProt P08173); assay: M4 (h) Ligand binding assay; conditions: Compound concentration 10.0 uM
T1 sequence (whole entry): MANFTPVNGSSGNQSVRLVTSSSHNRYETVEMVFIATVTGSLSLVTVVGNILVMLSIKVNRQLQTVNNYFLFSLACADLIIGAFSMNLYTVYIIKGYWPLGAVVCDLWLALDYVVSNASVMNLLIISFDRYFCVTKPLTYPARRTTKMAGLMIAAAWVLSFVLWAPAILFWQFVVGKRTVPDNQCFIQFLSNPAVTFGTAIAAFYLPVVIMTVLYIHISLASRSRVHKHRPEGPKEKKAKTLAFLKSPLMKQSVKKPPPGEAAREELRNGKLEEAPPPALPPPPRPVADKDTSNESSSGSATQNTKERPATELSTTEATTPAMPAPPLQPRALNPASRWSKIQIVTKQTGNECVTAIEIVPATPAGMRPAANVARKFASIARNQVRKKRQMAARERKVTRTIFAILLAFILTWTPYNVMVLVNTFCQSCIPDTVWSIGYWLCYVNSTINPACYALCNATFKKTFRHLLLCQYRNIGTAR

[21] = target: Vasopressin V1a receptor (Homo sapiens) (UniProt P37288); assay: V1a (h) Ligand binding assay; conditions: Compound concentration 10.0 uM

Chain of Sodium-dependent dopamine transporter (Homo sapiens) (Q01959 whole entry): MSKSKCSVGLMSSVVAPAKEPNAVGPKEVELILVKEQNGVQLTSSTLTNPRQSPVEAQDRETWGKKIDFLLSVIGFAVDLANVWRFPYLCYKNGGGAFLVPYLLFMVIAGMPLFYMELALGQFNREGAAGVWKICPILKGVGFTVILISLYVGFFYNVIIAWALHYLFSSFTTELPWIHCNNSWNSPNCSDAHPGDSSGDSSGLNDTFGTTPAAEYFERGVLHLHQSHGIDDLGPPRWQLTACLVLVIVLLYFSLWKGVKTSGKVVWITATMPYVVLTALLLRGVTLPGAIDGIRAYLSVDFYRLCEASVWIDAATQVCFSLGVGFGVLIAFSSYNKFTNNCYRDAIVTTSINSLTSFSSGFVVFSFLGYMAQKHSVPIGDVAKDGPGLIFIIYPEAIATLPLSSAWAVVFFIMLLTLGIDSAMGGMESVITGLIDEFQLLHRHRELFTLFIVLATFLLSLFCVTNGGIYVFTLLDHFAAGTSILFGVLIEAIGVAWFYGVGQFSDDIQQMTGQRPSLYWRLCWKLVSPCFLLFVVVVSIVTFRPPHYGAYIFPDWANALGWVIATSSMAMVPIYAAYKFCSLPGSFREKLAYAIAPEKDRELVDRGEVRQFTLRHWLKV
Chain of Sodium-dependent noradrenaline transporter (Homo sapiens) (P23975 whole entry): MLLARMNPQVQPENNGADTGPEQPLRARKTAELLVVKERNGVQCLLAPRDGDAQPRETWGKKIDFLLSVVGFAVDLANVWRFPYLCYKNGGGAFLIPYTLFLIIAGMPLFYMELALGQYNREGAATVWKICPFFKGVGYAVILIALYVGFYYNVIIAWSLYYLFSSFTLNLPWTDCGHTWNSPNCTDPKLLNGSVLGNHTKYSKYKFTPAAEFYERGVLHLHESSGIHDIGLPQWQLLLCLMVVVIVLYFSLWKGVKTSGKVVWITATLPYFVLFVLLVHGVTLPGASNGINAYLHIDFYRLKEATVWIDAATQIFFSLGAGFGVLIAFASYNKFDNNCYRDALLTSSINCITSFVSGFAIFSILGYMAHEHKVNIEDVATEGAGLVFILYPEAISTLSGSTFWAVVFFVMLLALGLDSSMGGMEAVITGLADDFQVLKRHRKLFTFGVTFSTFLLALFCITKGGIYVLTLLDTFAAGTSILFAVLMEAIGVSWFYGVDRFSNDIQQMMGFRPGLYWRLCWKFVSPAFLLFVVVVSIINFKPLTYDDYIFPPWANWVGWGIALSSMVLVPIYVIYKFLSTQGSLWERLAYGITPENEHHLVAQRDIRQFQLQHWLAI
Chain of D(3) dopamine receptor (Homo sapiens) (P35462 whole entry): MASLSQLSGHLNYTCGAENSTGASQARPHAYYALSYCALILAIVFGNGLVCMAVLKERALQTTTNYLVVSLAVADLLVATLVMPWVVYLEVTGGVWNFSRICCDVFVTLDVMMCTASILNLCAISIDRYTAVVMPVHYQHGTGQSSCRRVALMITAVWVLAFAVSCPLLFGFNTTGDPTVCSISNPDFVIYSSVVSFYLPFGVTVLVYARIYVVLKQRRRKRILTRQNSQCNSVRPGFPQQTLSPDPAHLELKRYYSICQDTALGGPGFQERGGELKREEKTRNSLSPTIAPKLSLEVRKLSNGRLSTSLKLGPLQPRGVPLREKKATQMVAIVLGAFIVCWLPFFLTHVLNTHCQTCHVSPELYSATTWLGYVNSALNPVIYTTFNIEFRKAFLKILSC
Chain of Adenosine receptor A1 (Homo sapiens) (P30542 whole entry): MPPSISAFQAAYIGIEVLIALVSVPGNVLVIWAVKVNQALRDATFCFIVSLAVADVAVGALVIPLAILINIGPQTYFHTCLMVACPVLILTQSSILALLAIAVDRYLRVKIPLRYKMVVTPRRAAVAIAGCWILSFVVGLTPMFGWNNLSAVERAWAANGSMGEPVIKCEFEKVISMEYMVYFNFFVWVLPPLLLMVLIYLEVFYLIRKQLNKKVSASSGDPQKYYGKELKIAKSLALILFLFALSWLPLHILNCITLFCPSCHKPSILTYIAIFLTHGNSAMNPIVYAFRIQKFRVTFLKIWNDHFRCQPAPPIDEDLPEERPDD
Chain of Muscarinic acetylcholine receptor M3 (Homo sapiens) (P20309 whole entry, looked up): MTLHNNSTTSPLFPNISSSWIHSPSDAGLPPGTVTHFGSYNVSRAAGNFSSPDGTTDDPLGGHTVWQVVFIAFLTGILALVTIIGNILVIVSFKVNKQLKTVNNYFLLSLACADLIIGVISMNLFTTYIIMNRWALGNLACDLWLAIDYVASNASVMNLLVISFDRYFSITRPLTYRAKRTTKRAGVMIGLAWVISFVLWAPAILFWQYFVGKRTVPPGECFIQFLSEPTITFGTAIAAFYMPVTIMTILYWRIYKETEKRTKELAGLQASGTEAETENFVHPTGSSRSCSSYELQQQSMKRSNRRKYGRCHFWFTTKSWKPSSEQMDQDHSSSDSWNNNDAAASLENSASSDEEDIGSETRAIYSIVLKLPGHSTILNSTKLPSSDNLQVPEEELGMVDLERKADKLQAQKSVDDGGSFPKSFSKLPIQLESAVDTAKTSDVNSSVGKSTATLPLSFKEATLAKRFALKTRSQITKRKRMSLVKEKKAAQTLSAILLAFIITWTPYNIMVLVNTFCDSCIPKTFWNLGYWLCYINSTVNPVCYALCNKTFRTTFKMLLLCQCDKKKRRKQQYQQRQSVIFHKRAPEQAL
Chain of D(1B) dopamine receptor (Homo sapiens) (P21918 whole entry): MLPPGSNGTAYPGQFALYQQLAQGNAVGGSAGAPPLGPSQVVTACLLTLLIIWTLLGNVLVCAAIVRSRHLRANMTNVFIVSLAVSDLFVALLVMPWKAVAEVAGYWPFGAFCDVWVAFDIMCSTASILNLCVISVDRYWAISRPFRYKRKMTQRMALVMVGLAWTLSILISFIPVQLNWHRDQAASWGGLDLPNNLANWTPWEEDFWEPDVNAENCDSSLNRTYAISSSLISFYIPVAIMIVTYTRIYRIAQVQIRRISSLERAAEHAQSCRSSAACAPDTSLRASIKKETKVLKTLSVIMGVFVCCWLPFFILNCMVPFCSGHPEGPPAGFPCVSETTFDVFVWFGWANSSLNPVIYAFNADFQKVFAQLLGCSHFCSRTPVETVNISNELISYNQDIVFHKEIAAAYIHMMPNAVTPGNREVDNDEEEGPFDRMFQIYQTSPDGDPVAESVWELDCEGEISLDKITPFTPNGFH
Chain of C-C chemokine receptor type 1 (Homo sapiens) (P32246 whole entry): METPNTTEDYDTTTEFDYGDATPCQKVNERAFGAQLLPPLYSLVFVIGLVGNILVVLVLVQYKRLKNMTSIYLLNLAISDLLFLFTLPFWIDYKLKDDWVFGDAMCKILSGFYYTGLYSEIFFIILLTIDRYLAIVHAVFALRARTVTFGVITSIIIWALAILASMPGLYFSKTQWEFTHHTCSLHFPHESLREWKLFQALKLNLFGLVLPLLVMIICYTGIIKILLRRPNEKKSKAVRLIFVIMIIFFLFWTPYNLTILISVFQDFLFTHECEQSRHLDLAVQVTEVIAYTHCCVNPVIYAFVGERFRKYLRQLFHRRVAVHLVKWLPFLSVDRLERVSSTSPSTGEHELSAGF
Chain of Type-1 angiotensin II receptor (Homo sapiens) (P30556 whole entry): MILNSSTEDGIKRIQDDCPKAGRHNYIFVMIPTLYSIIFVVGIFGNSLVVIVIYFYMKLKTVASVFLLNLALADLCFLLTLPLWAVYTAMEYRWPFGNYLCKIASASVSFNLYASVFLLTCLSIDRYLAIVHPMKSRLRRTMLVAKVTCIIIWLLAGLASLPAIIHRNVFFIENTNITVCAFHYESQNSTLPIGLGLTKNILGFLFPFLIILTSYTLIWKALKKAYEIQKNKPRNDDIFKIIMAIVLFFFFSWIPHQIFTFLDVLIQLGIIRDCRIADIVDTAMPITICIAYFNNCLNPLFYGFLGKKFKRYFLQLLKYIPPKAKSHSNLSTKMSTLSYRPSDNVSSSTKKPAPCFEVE
Chain of Endothelin receptor type B (Homo sapiens) (P24530 whole entry): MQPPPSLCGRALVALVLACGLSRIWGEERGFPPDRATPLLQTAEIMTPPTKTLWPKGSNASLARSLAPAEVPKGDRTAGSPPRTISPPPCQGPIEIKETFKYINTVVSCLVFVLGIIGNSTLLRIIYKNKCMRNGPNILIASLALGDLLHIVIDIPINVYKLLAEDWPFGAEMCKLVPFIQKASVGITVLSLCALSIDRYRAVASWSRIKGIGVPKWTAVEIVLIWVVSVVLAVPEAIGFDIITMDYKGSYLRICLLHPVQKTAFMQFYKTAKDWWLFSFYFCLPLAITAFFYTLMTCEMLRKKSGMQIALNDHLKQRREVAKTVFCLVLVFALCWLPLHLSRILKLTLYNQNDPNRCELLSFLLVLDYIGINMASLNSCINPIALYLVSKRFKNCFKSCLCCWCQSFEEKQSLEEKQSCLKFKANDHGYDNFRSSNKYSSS
Chain of Tumor necrosis factor (Homo sapiens) (P01375 whole entry): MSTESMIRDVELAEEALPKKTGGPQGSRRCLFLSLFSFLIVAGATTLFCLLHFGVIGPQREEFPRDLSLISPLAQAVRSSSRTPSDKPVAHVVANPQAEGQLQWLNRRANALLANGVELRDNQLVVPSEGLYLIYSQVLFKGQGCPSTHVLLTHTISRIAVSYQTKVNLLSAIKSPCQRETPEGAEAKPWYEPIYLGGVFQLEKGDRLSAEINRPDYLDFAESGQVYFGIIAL
Chain of Histamine H1 receptor (P35367 whole entry): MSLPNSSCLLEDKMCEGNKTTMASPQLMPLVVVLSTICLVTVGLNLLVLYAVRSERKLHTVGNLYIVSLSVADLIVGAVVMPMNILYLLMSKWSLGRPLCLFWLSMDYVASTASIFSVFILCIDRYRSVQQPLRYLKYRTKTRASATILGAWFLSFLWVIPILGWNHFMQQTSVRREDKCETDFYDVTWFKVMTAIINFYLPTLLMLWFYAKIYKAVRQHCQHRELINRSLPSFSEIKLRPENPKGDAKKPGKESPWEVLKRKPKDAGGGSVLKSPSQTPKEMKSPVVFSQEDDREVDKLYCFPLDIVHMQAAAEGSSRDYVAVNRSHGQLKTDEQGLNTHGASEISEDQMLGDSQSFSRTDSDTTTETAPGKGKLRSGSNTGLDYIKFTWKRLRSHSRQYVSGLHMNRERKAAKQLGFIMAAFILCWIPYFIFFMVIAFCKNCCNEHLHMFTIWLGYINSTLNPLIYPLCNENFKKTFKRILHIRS

Structure (SMILES): Cn1cncc1[C@](O)(COc1ccc(C#N)cc1-c1ccc(OC(F)(F)F)cc1)c1ccc(C#N)cc1 [ABT-100]
- inhibition [1]: < 10%
- inhibition [2]: < 10%
- inhibition [3]: < 10%
- inhibition [4]: < 10%
- inhibition [5]: < 10%
- inhibition [6]: 24%
- inhibition [7]: < 10%
- inhibition [8]: 13%
- inhibition [9]: 36%
- inhibition [10]: < 10%
- inhibition [11]: 21%
- inhibition ([12]; Compound concentration 3.0 uM): 45%
- inhibition ([12]; Compound concentration 10.0 uM): 74%
- Kd [13]: > 10 µM (not active)
- inhibition [14]: < 10%
- inhibition [15]: < 10%
- inhibition [16]: < 10%
- inhibition [17]: 54%
- inhibition [18]: < 10%
- inhibition (Histamine H1 receptor): < 10%
- inhibition ([19]; Compound concentration 1.0 uM): 21%
- inhibition ([19]; Compound concentration 3.0 uM): 41%
- inhibition ([19]; Compound concentration 10.0 uM): 75%
- inhibition [20]: < 10%
- inhibition [21]: < 10%
